Test results published in patent US9790228B2, “Heterocyclic kinase inhibitors” (Intellikine LLC, priority 2008, dated 2017).
Where two headings read alike, the source gives them in different places.

Key:
Balb/c splenic B cells = assay: B cell activation and proliferation assay (Alamar Blue); assay type: cell-based, mouse
Description: The ability of one or more subject compounds to inhibit B cell activation and proliferation is determined according to standard procedures known in the art. For example, an in vitro cellular proliferation assay is established that measures the metabolic activity of live cells. The assay is performed in a 96 well microtiter plate using Alamar Blue reduction. Balb/c splenic B cells are purified over a Ficoll-Paque™ PLUS gradient followed by magnetic cell separation using a MACS B cell Isolation Kit (Miletenyi). Cells are plated in 90 ul at 50,000 cells/well in B Cell Media (RPMI+10% FBS+Penn/Strep+50 uM bME+5 mM HEPES). A compound disclosed herein is diluted in B Cell Media and added in a 10 ul volume. Plates are incubated for 30 min at 37 C and 5% CO2 (0.2% DMSO final concentration). A 50 ul B cell stimulation cocktail is then added containing either 10 ug/ml LPS or 5 ug/ml F(ab′)2 Donkey anti-mouse IgM plus 2 ng/ml recombinant mouse IL4 in B Cell Media. Plates are incubated for 72 hours at 37° C. and 5% CO2. A volume of 15 uL of Alamar Blue reagent is added to each well and plates are incubated for 5 hours at 37 C and 5% CO2. Alamar Blue fluoresce is read at 560Ex/590Em, and IC50 or EC50 values are calculated using GraphPad Prism 5.

p110δ/p85α = p110δ/p85α (Homo sapiens (Human), UniProt O00329); assay: PI3K δ inhibition assay (TLC lipid kinase or HTRF); assay type: biochemical
Sequence of p110δ/p85α (O00329 whole entry): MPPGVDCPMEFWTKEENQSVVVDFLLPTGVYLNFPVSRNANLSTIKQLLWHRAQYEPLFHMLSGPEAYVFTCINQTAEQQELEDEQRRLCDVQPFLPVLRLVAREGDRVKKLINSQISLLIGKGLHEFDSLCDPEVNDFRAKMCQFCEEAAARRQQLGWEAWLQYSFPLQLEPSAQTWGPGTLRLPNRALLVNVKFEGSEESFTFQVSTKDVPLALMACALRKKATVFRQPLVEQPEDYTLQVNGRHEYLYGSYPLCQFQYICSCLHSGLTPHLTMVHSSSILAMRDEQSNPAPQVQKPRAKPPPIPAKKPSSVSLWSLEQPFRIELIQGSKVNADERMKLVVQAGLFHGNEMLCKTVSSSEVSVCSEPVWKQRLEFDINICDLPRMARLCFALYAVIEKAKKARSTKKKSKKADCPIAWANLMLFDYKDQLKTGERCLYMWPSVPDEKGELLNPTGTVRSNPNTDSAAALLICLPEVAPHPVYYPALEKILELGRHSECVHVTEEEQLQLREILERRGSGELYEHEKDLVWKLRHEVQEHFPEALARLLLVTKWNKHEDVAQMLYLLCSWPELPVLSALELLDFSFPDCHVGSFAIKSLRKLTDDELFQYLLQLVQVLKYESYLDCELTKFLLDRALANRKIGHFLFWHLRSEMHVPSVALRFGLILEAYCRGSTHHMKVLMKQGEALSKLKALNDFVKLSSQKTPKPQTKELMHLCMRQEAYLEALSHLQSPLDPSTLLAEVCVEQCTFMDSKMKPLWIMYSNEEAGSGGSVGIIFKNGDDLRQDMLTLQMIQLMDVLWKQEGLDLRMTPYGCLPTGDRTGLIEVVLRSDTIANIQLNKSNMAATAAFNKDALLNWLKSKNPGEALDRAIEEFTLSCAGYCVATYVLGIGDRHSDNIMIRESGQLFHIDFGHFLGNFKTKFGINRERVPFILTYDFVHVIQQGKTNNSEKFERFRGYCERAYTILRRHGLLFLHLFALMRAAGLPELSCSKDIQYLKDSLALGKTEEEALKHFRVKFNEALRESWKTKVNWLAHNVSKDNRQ
Sequence of p110δ/p85α (P27986 whole entry partner): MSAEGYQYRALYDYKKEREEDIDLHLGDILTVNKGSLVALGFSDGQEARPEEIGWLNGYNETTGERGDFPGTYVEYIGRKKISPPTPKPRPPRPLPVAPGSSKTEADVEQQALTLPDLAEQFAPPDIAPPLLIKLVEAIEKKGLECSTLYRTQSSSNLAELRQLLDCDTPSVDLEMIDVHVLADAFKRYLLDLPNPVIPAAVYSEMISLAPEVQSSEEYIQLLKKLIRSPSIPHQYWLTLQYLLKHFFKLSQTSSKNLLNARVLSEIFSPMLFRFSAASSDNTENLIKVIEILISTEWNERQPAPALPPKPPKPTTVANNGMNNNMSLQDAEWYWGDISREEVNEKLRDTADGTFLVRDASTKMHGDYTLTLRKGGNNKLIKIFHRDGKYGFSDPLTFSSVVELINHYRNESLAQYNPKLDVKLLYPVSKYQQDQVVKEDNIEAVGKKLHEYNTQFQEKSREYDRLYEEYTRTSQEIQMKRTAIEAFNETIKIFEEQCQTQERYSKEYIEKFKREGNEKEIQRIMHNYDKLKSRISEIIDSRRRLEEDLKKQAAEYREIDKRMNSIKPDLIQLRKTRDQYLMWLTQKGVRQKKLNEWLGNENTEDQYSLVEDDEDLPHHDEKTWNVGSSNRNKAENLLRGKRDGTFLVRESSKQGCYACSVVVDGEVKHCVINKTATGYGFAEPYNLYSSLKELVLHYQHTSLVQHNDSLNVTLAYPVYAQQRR
Description: (§1) Class I PI3-Ks can be either purchased (p110α/p85α, p110β/p85α, p110δ/p85α from Upstate, and p110γ from Sigma) or expressed as previously described (Knight et al., 2004). IC50 values are measured using either a standard TLC assay for lipid kinase activity (described below) or a high-throughput membrane capture assay. Kinase reactions are performed by preparing a reaction mixture containing kinase, inhibitor (2% DMSO final concentration), buffer (25 mM HEPES, pH 7.4, 10 mM MgCl2), and freshly sonicated phosphatidylinositol (100 μg/ml). Reactions are initiated by the addition of ATP containing 10 μCi of γ-32P-ATP to a final concentration 10 or 100 μM and allowed to proceed for 5 minutes at room temperature. For TLC analysis, reactions are then terminated by the addition of […] 1N HCl followed by 160 μl CHCl3:MeOH (1:1). The biphasic mixture is vortexed, briefly centrifuged, and the organic phase is transferred to a new tube using a gel loading pipette tip precoated with CHCl3. This extract is spotted on TLC plates and developed for 3-4 hours in a 65:35 solution of n-propanol:1M acetic acid. The TLC plates are then dried, exposed to a phosphorimager screen (Storm, Amersham), and quantitated. For each compound, kinase activity is measured at 10-12 inhibitor concentrations representing two-fold dilutions from the highest concentration tested (typically, 200 μM).
(§2) Other commercial kits or systems for assaying PI3-K activities are available. The commercially available kits or systems can be used to screen for inhibitors and/or agonists of PI3-Ks including but not limited to PI 3-Kinase α, β, δ, and γ. Anr exemplary system is PI3-Kinase (human) HTRF™ Assay from Upstate. […] Briefly, the assay is a time resolved FRET assay that indirectly measures PIP3 product formed by the activity of a PI3-K. The kinase reaction is performed in a microtitre plate (e.g., a 384 well microtitre plate). The total reaction volume is approximately 20 ul per well. In the first step, each well receives 2 ul of test compound in 20% dimethylsulphoxide resulting in a 2% DMSO final concentration. Next, approximately 14.5 ul of a kinase/PIP2 mixture (diluted in 1× reaction buffer) is added per well for a final concentration of 0.25-0.3 ug/ml kinase and 10 uM PIP2. The plate is sealed and incubated for 15 minutes at room temperature. To start the reaction, 3.5 ul of ATP (diluted in 1× reaction buffer) is added per well for a final concentration of 10 uM ATP. The plate is sealed and incubated for 1 hour at room temperature. The reaction is stopped by adding 5 ul of Stop Solution per well and then 5 ul of Detection Mix is added per well. The plate is sealed, incubated for 1 hour at room temperature, and then read on an appropriate plate reader. Data is analyzed and IC50s are generated using GraphPad Prism 5.

p110γ = p110γ (Homo sapiens (Human), UniProt P48736); assay: PI3K γ inhibition assay (TLC lipid kinase or HTRF); assay type: biochemical
Sequence of p110γ (P48736 whole entry): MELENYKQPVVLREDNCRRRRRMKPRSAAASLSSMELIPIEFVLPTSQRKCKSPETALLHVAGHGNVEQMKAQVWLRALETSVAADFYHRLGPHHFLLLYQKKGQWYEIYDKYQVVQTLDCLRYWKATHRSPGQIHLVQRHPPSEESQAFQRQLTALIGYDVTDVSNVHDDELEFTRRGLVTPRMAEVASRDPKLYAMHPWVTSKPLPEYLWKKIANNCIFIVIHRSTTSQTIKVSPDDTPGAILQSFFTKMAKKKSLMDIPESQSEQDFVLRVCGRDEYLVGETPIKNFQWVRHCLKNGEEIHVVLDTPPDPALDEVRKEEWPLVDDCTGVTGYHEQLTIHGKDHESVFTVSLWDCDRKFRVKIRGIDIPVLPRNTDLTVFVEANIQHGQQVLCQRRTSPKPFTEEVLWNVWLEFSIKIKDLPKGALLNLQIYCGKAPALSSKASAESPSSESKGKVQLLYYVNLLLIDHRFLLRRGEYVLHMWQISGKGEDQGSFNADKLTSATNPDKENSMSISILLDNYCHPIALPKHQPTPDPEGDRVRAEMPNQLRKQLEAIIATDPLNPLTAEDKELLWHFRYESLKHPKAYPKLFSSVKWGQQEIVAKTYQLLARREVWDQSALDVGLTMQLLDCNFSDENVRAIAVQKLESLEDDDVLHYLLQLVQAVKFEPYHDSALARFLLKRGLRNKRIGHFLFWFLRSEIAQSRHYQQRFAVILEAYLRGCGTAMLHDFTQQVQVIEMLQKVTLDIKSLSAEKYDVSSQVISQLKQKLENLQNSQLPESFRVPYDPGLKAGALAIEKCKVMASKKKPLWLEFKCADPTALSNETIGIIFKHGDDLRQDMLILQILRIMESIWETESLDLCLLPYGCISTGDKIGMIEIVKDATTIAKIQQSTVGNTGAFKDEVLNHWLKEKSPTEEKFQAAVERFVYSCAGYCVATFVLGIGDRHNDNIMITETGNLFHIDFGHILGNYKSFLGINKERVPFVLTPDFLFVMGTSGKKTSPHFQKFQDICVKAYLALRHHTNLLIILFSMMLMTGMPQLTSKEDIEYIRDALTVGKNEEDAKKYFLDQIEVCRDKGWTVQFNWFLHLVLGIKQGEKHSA
Description: as §1, §2

p110α/p85α = p110α/p85α (Homo sapiens (Human), UniProt P42336); assay: PI3K α inhibition assay (TLC lipid kinase or HTRF); assay type: biochemical
Sequence of p110α/p85α (P42336 whole entry): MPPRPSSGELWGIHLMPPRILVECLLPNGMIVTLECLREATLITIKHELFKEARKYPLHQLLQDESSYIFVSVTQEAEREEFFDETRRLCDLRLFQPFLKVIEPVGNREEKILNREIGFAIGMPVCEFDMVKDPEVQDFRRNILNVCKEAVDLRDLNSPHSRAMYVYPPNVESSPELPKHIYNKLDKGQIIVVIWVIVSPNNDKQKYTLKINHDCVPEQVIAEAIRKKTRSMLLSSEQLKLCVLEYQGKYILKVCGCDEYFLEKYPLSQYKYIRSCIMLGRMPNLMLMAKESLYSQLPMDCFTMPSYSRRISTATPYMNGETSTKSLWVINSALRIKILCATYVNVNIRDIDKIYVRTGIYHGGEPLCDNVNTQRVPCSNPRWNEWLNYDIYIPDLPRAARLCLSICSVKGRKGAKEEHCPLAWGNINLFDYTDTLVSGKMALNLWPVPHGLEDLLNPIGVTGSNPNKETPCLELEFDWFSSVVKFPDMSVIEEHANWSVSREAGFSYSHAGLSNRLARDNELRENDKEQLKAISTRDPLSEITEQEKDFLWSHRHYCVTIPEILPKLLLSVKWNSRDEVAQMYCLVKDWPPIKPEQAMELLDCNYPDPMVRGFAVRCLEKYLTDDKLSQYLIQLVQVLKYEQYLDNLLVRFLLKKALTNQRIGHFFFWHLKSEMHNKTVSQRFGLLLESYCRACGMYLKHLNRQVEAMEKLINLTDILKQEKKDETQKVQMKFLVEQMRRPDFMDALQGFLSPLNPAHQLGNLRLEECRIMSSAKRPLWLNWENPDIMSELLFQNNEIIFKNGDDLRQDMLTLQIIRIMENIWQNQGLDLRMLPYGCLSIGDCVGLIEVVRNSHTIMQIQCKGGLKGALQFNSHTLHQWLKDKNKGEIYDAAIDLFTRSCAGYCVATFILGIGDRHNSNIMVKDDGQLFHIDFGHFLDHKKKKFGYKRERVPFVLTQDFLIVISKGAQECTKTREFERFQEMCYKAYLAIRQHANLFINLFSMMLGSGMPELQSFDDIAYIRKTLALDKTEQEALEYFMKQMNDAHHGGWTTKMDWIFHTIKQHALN
Sequence of p110α/p85α (P27986 whole entry partner): as the sequence (P27986 whole entry partner) above
Description: as §1, §2

p110β/p85α = p110β/p85α (Homo sapiens, UniProt P42338); assay: PI3K β inhibition assay (TLC lipid kinase or HTRF); assay type: biochemical; conditions: read-out: PI3K β IC50
Sequence of p110β/p85α (P42338 whole entry, looked up): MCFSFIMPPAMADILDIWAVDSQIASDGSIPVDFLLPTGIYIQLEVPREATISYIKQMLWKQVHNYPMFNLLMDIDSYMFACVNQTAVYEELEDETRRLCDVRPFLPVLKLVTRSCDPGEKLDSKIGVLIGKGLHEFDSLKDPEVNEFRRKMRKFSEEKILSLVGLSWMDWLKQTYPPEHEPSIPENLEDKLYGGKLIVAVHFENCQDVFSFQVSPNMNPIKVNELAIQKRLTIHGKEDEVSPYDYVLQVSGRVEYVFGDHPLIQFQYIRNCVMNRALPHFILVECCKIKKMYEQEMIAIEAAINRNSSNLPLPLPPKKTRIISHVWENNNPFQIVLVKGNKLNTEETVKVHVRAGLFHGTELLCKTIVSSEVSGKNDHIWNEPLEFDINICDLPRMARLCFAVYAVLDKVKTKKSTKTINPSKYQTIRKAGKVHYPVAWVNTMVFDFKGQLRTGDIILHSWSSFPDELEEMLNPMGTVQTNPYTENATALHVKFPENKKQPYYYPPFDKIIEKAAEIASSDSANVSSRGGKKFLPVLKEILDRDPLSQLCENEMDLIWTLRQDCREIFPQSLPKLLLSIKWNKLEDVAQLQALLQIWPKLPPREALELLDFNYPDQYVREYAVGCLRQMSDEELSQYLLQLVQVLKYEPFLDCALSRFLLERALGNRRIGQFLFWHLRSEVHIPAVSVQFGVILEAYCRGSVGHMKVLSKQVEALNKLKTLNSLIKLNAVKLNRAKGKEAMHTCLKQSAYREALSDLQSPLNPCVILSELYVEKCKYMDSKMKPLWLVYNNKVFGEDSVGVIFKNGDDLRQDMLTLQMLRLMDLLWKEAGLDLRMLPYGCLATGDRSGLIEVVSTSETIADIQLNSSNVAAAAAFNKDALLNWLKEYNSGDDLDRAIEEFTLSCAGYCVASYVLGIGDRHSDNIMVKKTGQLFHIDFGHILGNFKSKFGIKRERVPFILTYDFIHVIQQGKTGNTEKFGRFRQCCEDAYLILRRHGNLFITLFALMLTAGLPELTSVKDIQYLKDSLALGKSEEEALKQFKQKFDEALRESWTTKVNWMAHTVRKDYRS
Description: as §1, §2

SMILES	EC50 (Balb/c splenic B cells; Mus musculus, B-cell)	IC50 (p110δ/p85α)	IC50 (p110γ)	IC50 (p110α/p85α)	IC50 (p110β/p85α)	EC50 (Balb/c splenic B cells)
Cc1cccc2cc(Cn3nc(I)c4c(N)ncnc43)c(N3CCN(C)CC3)nc12 [Compound 11]	< 100 nM	< 100 nM				
Cc1cccc2cc(Cn3nc(-c4cc(O)cc(F)c4)c4c(N)ncnc43)c(N3CCN(C)CC3)nc12 [Compound 12]	< 100 nM	< 100 nM				
Cc1cccc2cc(Cn3nc(-c4cccc(O)c4)c4c(N)ncnc43)c(N3CCN(C)CC3)nc12 [Compound 13]	< 100 nM	< 100 nM				
COc1ccccc1-c1nc2ccccc2cc1Cn1nc(-c2cc(O)cc(F)c2)c2c(N)ncnc21 [Compound 15]	< 100 nM	< 100 nM				
CC(C)c1ccccc1-c1nc2ccccc2cc1Cn1nc(C#C[C@@H](C)O)c2c(N)ncnc21 [Compound 16]	100 to 1000 nM	< 100 nM				
Nc1ncnc2c1c(-c1cc(O)cc(F)c1)nn2Cc1cc2ccccc2nc1-c1ccccc1F [Compound 19]	< 100 nM	< 100 nM				
Nc1ncnc2c1c(-c1cc(O)cc(F)c1)nn2Cc1cc2ccccc2nc1N1CCCCC1 [Compound 20]	< 100 nM	< 100 nM				
Nc1ncnc2c1c(-c1cnc3[nH]ccc3c1)nn2Cc1cc2ccccc2nc1N1CCCC1 [Compound 23]	< 100 nM	< 100 nM				
CC(C)Nc1nc2ccccc2cc1Cn1nc(-c2cc(O)cc(F)c2)c2c(N)ncnc21 [Compound 25]	> 1000 nM	100 to 1000 nM	> 1000 nM			
NCc1ccc(F)cc1-c1nc2ccccc2cc1Cn1nc(-c2cc(O)cc(F)c2)c2c(N)ncnc21 [Compound 26]	< 100 nM	< 100 nM	> 1000 nM			
CC(c1cc2ccccc2nc1N1CCCC1)n1nc(-c2cc(O)cc(F)c2)c2c(N)ncnc21 (centres unmarked) [Compound 30]	< 100 nM	< 100 nM	< 100 nM			
CC(c1cc2ccccc2nc1N1CCCC1)n1nc(C#C[C@@H](C)O)c2c(N)ncnc21 (some centres unmarked) [Compound 31]	100 to 1000 nM	< 100 nM	> 1000 nM			
CC(c1cc2ccccc2nc1N1CCCC1)n1nc(-c2cccc(O)c2)c2c(N)ncnc21 (centres unmarked) [Compound 32]	< 100 nM	< 100 nM	100 to 1000 nM			
Nc1ncnc2c1c(-c1cc(O)cc(F)c1)nn2Cc1cc2ccccc2nc1N1CCN(CCO)CC1 [Compound 34]	< 100 nM	< 100 nM	100 to 1000 nM			
Nc1ncnc2c1c(-c1cc(O)cc(F)c1)nn2Cc1cc2ccccc2nc1NC1CCC1 [Compound 42]	< 100 nM	< 100 nM				
Nc1ncnc2c1c(-c1cc(O)cc(F)c1)nn2Cc1cc2ccccc2nc1-c1ccccc1C(F)(F)F [Compound 45]	< 100 nM	< 100 nM	100 to 1000 nM			

SMILES	EC50 (Balb/c splenic B cells; Mus musculus, B-cell)	IC50 (p110δ/p85α)	IC50 (p110γ)	IC50 (p110α/p85α)	IC50 (p110β/p85α)	EC50 (Balb/c splenic B cells)
Nc1ncnc2c1c(-c1cccc(O)c1)nn2Cc1cc2ccccc2nc1-c1ccccc1C(F)(F)F [Compound 46]	100 to 1000 nM	< 100 nM	100 to 1000 nM			
Nc1ncnc2c1c(-c1cccc(O)c1)nn2Cc1cc2ccccc2nc1N1CCCC1 [Compound 47]	< 100 nM	< 100 nM	< 100 nM			
C[C@@H](O)C#Cc1nn(Cc2cc3ccccc3nc2N2CCCC2)c2ncnc(N)c12 [Compound 48]	100 to 1000 nM	100 to 1000 nM	> 1000 nM			
C[C@@H](O)C#Cc1nn(Cc2cc3ccccc3nc2-c2ccccc2C(F)(F)F)c2ncnc(N)c12 [Compound 49]	100 to 1000 nM	100 to 1000 nM	> 1000 nM			
CC(c1cc2ccccc2nc1-c1ccccc1)n1cnc2c(N)ncnc21 (centres unmarked) [Compound 60]	> 1000 nM	> 1000 nM	> 1000 nM			
Nc1ncnc2c1c(-c1cc(O)cc(F)c1)nn2Cc1cnc2ccccc2c1 [Compound 61]	< 100 nM	< 100 nM	< 100 nM			
Cc1ccccc1-c1nc2ccccc2n1CCn1nc(-c2cc(O)cc(F)c2)c2c(N)ncnc21 [Compound 127]	100 to 1000 nM	< 100 nM	> 1000 nM			
CC(=O)Nc1nc2ccc(-c3nn(Cc4cc5ccccc5nc4N4CCOCC4)c4ncnc(N)c34)cc2s1 [Compound 128]	< 100 nM	< 100 nM	< 100 nM	< 100 nM		
Nc1ncnc2c1c(-c1ccc3cc[nH]c3c1)nn2Cc1cc2ccccc2nc1N1CCCC1 [Compound 147]	100 to 1000 nM	< 100 nM	< 100 nM	100 to 1000 nM		
Nc1ncnc2c1c(-c1cccc(O)c1)nn2Cc1cc2ccccc2nc1-c1ccccc1 [Compound 148]	< 100 nM	< 100 nM	< 100 nM		> 1000 nM	
CC(C)N(C)c1nc2ccccc2cc1Cn1nc(-c2ccc3nc(N)sc3c2)c2c(N)ncnc21 [Compound 154]	< 100 nM	< 100 nM	100 to 1000 nM	< 100 nM		
Nc1nc2cc(-c3nn(Cc4cc5ccccc5nc4-c4ccccc4C(F)(F)F)c4ncnc(N)c34)ccc2[nH]1 [Compound 155]	100 to 1000 nM	< 100 nM	> 1000 nM	> 1000 nM		
Cc1ccccc1-c1nc2ccccc2cc1Cn1nc(-c2ccc3nc(N)[nH]c3c2)c2c(N)ncnc21 [Compound 182]	100 to 1000 nM	< 100 nM	< 100 nM	> 1000 nM		
Nc1nc2ccc(-c3nn(Cc4cc5ccccc5nc4N4CCCC4)c4ncnc(N)c34)cc2s1 [Compound 196]		< 100 nM	< 100 nM	100 to 1000 nM		100 to 1000 nM
CN1CCN(c2ncccc2Cn2nc(-c3cc(O)cc(F)c3)c3c(N)ncnc32)CC1 [Compound 200]	100 to 1000 nM	< 100 nM	> 1000 nM	> 1000 nM		
